Test results: patent publication US10564168B2, “Method for treating male infertility based on NOX5 protein levels in sperm” (priority 2013, dated 2020)

Experiments:
human spermatozoa [1] = experiment: Superoxide assay, luminol-based Diogenes chemiluminescence, whole spermatozoa; assay type: cell-based
Source text: (§1) Human semen samples were obtained from patient donors as a part of their clinical evaluation for fertility and reproductive health status. Portions of the samples not required for clinical analyses were de-identified and made available for the research protocols described. Under these conditions, the Institutional Review Board determined that the study is exempt from requirements for protocol approval and informed consent. Semen was collected by masturbation into sterile plastic containers and allowed to liquefy for at least 30 min before being processed. The samples were centrifuged (500 g, 15 min) to separate the seminal plasma from spermatozoa, and the pellet washed twice in phosphate-buffered normal saline pH 7 with 10 mM glucose (PBS-G). The spermatozoa were then counted in a hemocytometer chamber, resuspended in PBS-G at 10^9/ml, and used for superoxide assays. Sperm samples containing leukocytes detected by microscopic examination were excluded from the study. For selected experiments, motile spermatozoa were collected using the swim-up procedure (Vijayakumar et al. (1986) Arch. Androl. 17, 223-230; Parrish and Foote (1987) J. Androl. 8, 259-266). Briefly, the spermatozoa were sedimented by centrifugation (500 g, 15 min) and the tube was then incubated upright for 60 min at 37° C. Motile spermatozoa that progressed from the pellet into the supernatant (swim-up fraction) were collected by aspiration and counted.
(§2) Superoxide generation was measured using a luminol-based chemiluminescence assay (Diogenes reagent, National Diagnostics, Atlanta, Ga.). […] Spermatozoa were suspended at 10^9/ml in PBS-G. A 100 μl aliquot of the Diogenes reagent was mixed with 2×10^7 spermatozoa and incubated at 37° C. for 2-4 minutes. Superoxide generation was measured at baseline and after stimulation with ionomycin (1 μM), phorbol myristate acetate (PMA, 1 μg/ml), or H2O2 (100 μM and other concentrations as indicated). Chemiluminescence was measured every 30-60 sec for up to 10-15 min using a Clarity™ BioTek luminometer and an integration time of 5 sec.
Spermatozoa were pre-incubated for 5 min prior to the superoxide assay with 400 U/ml superoxide dismutase (SOD), 10 μM diphenylene iodonium (DPI), or 100 μM 1,2-Bis (2-aminophenoxy) ethane-N,N,N′,N′-tetraacetic acid (BAPTA). […] In some experiments, cells were pre-exposed to the NOX inhibitor 2-(2-chlorophenyl)-4-methyl-5-(pyridin-2-ylmethyl)-1H-pyrazolo[4,3-c]pyridine-3,6(2H,5H)-dione (GKT136901, 0.5 μM and other concentrations as indicated) for 10 min before exposure to either H2O2 or PMA.

c-Abl = experiment: Phospho-c-Abl immunoblot and immunostaining of spermatozoa; assay type: cell-based, human; settings: 100 μM H2O2, 10 min
Description: Spermatozoa resuspended in lysis buffer A (20 mM HEPES, pH 7.9; 350 mM NaCl; 0.5 mM EDTA; 0.5 mM EGTA; 1 mM MgCl2; 10% glycerol (v/v); 1% Nonidet P-40 (v/v); 10 mM NaF; 0.1 mM Na3VO4 [orthovanadate], 8 mM β-glycerophosphate; phosphatase inhibitor cocktail I and II [Sigma]; and protease inhibitor cocktail [Roche, Mannheim, Germany]) were sonicated 3 times for 5 sec each (20 watts). Lysates were cleared by centrifugation (10,000 g, 15 min). Aliquots containing 60-200 μg of protein were separated on 4-20% SDS polyacrylamide gradient gels and transferred to polyvinylidene difluoride (PVDF) membranes. […]
For immunohistological analyses, a drop of spermatozoa suspended in PBS-G was placed on a poly-L-lysine-coated glass slide, fixed in 4% (w/v) paraformaldehyde and permeabilized with 0.1% Triton X-100 (v/v) for 15 min at 4° C. […] Protein expression was visualized on a fluorescence microscope (Zeiss, Thornwood, N.Y.). […]

human spermatozoa [2] = experiment: Swim-up procedure, sperm motility; assay type: cell-based; settings: 100 μM H2O2, 10 min
Source text: as §1

human spermatozoa [3] = experiment: Live cell confocal imaging with fluo4-AM and DHE; assay type: cell-based; settings: H2O2, 10 min
Description: Spermatozoa suspended in PBS-G were plated on poly-L-lysine-coated glass coverslips (2×10^5 cells/ml) in PBS-G and loaded with 6 μM fluo4-AM and 300 nM dihydroethidine (DHE) (Molecular Probes, Carlsbad, Calif.) 10 min before imaging. Ca2+ influx and superoxide production were recorded using a confocal microscope (LSM 510; Carl Zeiss MicroImaging, Inc., Thornwood, N.Y.) with a 63×/1.4 NA plan-apochromat objective. Fluo-4 and DHE fluorescence emissions were excited with dual laser at 488/543 nm attenuated to avoid photobleaching and saturation. Detection was through a 545 nm long-pass dichroic mirror and a band-pass filter at 500-530 for fluo-4 and LP560 for DHE.

K562/NOX5 cells = experiment: Superoxide production by K562/NOX5 cells; assay type: cell-based, human; settings: 1 mM ZnCl2, K562/NOX5 cells
Description: as §2
Human leukemia cells stably transfected with an empty vector (K562 cells) or a vector encoding for NOX5 (K562/NOX5) were grown in RPMI medium supplemented with 10% (v/v) fetal bovine serum, plus 100 U/ml penicillin and 100 μg/ml streptomycin and the appropriate selection antibiotic. Cells in the logarithmic phase of growth were transfected with a mix of HV1 siRNA (Sigma) or with scrambled siRNA (Sigma) using the Neon system (Invitrogen, Carlsbad, Calif.) according to the manufacturer's recommendations. […]

| Compound | dose dependence of induction of superoxide generation (human spermatozoa [1]; 1 to 500 μM H2O2) | H2O2-stimulated superoxide production by hypermotile spermatozoa of the upper fraction after spontaneous swim-up (human spermatozoa [1]; compared with pre-swim-up cells) | onset of superoxide burst after peroxide addition (human spermatozoa [1]; human spermatozoa) [min] | time to maximal superoxide activity levels (human spermatozoa [1]; human spermatozoa, varying among donors) [min] | induction of superoxide production by spermatozoa (human spermatozoa [1]; ionomycin 1 μM, PMA 1 μg/ml or H2O2 100 μM, 10 min) | phosphorylation of c-Abl (c-Abl) | effect on number of sperm in the swim-up fraction (human spermatozoa [2]) | cytosolic Ca2+ levels and superoxide fluorescence (human spermatozoa [3]) | sensitivity of superoxide production induced by H2O2, PMA, or ionomycin (human spermatozoa [1]; 1 mM ZnCl2, 5 min pre-incubation, human spermatozoa) | decrease of superoxide production stimulated by ionomycin, PMA, or H2O2 (K562/NOX5 cells) |
| --- | --- | --- | --- | --- | --- | --- | --- | --- | --- | --- |
| OO [H2O2] | dose-dependent | did not produce superoxide | 1 to 2 | 5 to 10 | induced a marked burst in superoxide production | induced the phosphorylation of c-Abl on tyrosine 245 | increase in the number of sperm in the swim-up fraction | increases in cytosolic Ca2+ levels | – | – |
| [Cl-].[Cl-].[Zn+2] [ZnCl2] | – | – | – | – | – | – | – | – | Zn2+-sensitive | 50-70% |
